Data reported in US12440440B2, “Dry powder esketamine composition for use in the treatment of bipolar depression by pulmonary administration” (Novohale Therapeutics, LLC, priority 2017, dated 2025).
Counter-ions that a name gives are not always drawn.

Key:
[1] = in vivo; cited from earlier work
[2] = cited from earlier work
[3] = cited from earlier work; remark: listed apart in the source
[4] = nebulized saline solution, inhalation; cited from earlier work
[5] = Predicted esketamine plasma concentration for 0.20 mg/kg 40 minutes intravenous infusion; type: in vivo; settings: human, 0.2 mg/kg, predicted on the basis of literature data
Description: The aim of the study was to determine the amount of puffs needed to obtain plasma concentration similar to that sufficient to achieve antidepressant effect as for 0.20 mg/kg 40 minutes intravenous infusion. It can be predicted on the basis of literature data that this corresponds to concentration at 40 min of infusion between about 60 to 100 ng/ml. It was also the aim to determine the number of puffs that allow to avoid a sharp peak of plasma concentration that is considered an important factor inducing adverse psychomimetic and dissociative effects.

[6] = 40-minute i.v. infusion of 0.20 mg/kg or 0.40 mg/kg, TRD patients; cited from earlier work
NMDA receptor = settings: cited from earlier work
[7] = oral administration of ketamine
[8] = i.v. infusion of racemic ketamine

CNC1(c2ccccc2Cl)CCCCC1=O (racemic) [ketamine]
proportion of patients with treatment-resistant depression responsive to treatment [1]: about ⅔ | bioavailability ([2]; orally administered): 16-20% | half-period of concentration fall ([3]; after i.v. infusion 0.5 mg/kg for 40 minutes): below 2 hours | systemic concentration of parent drug ([3]; i.v. infusion 0.5 mg/kg for 40 minutes, maintained for about 40 minutes): about 200 ng/ml

CN[C@]1(c2ccccc2Cl)CCCCC1=O [esketamine hydrochloride]
inhaled bioavailability [4]: reduced

CN[C@]1(c2ccccc2Cl)CCCCC1=O [esketamine]
concentration at 40 min [5]: 60 to 100 ng/mL | antidepressant effects [6]: rapid onset of robust antidepressant effects

NC1(c2ccccc2Cl)CCCCC1=O (stereo not drawn) [norketamine]
AUC for norketamine relative to ketamine [2, 7]: exceeding 1000% | norketamine level relative to ketamine level [2, 7]: 500-1000% | activity on NMDA receptor relative to ketamine (NMDA receptor): many times less active than ketamine | maximum concentration as level of ketamine concentration [3, 8]: 10-20% | percentage of AUC norketamine to ketamine [3, 8]: 20-40%
